Measured values: patent US7473790B2 (Pfizer Inc., priority 2003, dated 2009)

What follows are compounds tested against T1, HCV polymerase (Hepatitis C virus genotype 1b, UniProt P26663) (assay: HCV polymerase primer/template-directed transcription assay (32P-GTP incorporation, filter binding)). Conditions: recombinant HCV polymerase; 30 minutes at 30° C.; concentration giving 50% inhibition of polymerase-directed transcription; read-out: IC50.
T1 construct: 2.5 pmoles (0.15 μg) HCV polymerase protein in a final volume of 75 μL
T1 sequence (P26663 2420-3010): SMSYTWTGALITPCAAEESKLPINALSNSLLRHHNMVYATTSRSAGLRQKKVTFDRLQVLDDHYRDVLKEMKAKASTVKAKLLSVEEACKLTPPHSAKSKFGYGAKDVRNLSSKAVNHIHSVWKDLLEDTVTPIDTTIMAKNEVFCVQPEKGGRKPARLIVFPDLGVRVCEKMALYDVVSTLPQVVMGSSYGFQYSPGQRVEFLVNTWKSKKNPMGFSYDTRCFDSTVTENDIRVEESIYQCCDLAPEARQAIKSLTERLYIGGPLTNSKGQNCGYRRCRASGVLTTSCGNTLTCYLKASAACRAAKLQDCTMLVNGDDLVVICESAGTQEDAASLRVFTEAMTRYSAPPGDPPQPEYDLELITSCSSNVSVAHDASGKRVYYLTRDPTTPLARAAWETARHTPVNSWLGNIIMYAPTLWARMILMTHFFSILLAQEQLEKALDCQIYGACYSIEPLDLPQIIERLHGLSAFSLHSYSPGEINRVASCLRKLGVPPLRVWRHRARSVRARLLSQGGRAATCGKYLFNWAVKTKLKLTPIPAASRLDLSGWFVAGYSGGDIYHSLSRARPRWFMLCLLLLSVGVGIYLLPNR
Format: biochemical
Method: The compounds described herein were tested for activity with HCV polymerase. Recombinant HCV polymerase was tested for its ability to perform primer/template-directed transcription in assays that contained 30 mM tris-HCl pH 7.2, 10 mM MgCl2, 20 mM NaCl, 1 mM Dithiothreitol (DTT), 0.05% Tween-20, 1% glycerol, 5 pmoles biotin-dG12 (primer), 0.5 pmoles poly(rC)300 (template), 1 μM GTP, 0.1-0.3 uCi α-^32P-GTP, and 2.5 pmoles (0.15 μg) HCV polymerase protein in a final volume of 75 μL. Reactions were initiated by addition of enzyme and incubated 30 minutes at 30° C. Reactions were stopped by addition of 33 mM EDTA, and polynucleotide products were collected by filtration through Diethylaminoethyl (DE) Filtermat papers (Wallac). Unincorporated triphosphate was removed by washing the filters with 5% dibasic sodium phosphate. The filters were counted in a Packard Tri-Lux Microbeta scintillation counter (Packard Bioscience, Meriden, Conn.). Compounds to be tested were added at various concentrations, e.g., 1 μm to 50 μm, from stocks in 10% DMSO-water (final DMSO is 1% in reaction).
IC50 values were estimated from the primary cpm data (collected in triplicate) using the formula: cpm (I)=cpm(no inhibitor)(1−([I]/([I]+IC50))). An IC50 value represents the concentration (in μM) of a compound that provides 50% inhibition of polymerase-directed transcription in the above assay. A percent inhibition value is expressed for a compound where it was impractical to calculate an IC50 value with available data. If the IC50 estimated by the above equation was less than 200 nM, it was recalculated using the following equation, which takes into account the enzyme concentration (30 nM) in the assay: cpm(I)=cpm(no inhibitor)(1−((((I+IC50+30e−9)−sqrt(((I+IC50+30e−9)^2)−4×30e−9×I)))/((2)(30e−9))). Curve fitting was performed using the program KaleidaGraph (Synergy Software, Reading, Pa.).
CC(C)(C#N)c1ccc(CCC2(C3CCCC3)CC(=O)C(Cc3nc4ncccn4n3)C(=O)O2)cc1F (racemic) [A(104), 2-{4-[2-(2-Cyclopentyl-4,6-dioxo-5-[1,2,4]triazolo[1,5-a]pyrimidin-2-ylmethyl-tetrahydro-pyran-2-yl)-ethyl]-2-fluoro-phenyl}-2-methyl-propionitrile] was tested, and the IC50 was 8 nM.
Cc1cnc2nc(CC3C(=O)CC(CCc4ccc(C(C)(C)C#N)c(F)c4)(C4CCCC4)OC3=O)nn2c1 (racemic) [A(108), 2-(4-{2-[2-Cyclopentyl-5-(6-methyl-[1,2,4]triazolo[1,5-a]pyrimidin-2-ylmethyl)-4,6-dioxo-tetrahydro-pyran-2-yl]-ethyl}-2-fluoro-phenyl)-2-methyl-propionitrile] was tested, and the IC50 was 3 nM.
For Cc1cc(C)n2nc(CC3=C(O)CC(CCc4ccc(C5(C#N)CC5)c(Cl)c4)(C4CCCC4)OC3=O)nc2n1 (racemic) [A(200), 1-(2-Chloro-4-{2-[2-cyclopentyl-5-(5,7-dimethyl-[1,2,4]triazolo[1,5-a]pyrimidin-2-ylmethyl)-4-hydroxy-6-oxo-3,6-dihydro-2H-pyran-2-yl]-ethyl}-phenyl)-cyclopropanecarbonitrile], the IC50 was 5 nM.
For Cc1cc(C)n2nc(CC3=C(O)CC(CCc4ccc(C5(C#N)CC5)c(Cl)c4)(C4CCCC4)OC3=O)nc2n1 (racemic) [A(201), 1-(2-Chloro-4-{2-[2-cyclopentyl-5-(5,7-dimethyl-[1,2,4]triazolo[1,5a]pyrimidin 2-ylmethyl)-4-hydroxy-6-oxo-3,6-dihydro-2H-pyran-2-yl]-ethyl}-phenyl)-cyclopropanecarbonitrile], the IC50 was 12 nM.
With Cc1cnc2nc(CC3=C(O)CC(CCc4ccc(C(C)(C)C#N)c(Cl)c4)(C4CCCC4)OC3=O)nn2c1 (racemic) [A(202), 2-(2-Chloro-4-{2-[2-cyclopentyl-4-hydroxy-5-(6-methyl-[1,2,4]triazolo[1,5-a]pyrimidin-2-ylmethyl)-6-oxo-3,6-dihydro-2H-pyran-2-yl]-ethyl}-phenyl)-2-methyl-propionitrile] the IC50 was 12 nM.
Compound Cc1cnc2nc(CC3=C(O)CC(CCc4ccc(C(C)(C)C#N)c(Cl)c4)(C4CCCC4)OC3=O)nn2c1 (racemic) [A(203), 2-(2-Chloro-4-{2-[2-cyclopentyl-4-hydroxy-5-(6-methyl-[1,2,4]triazolo[1,5-a]pyrimidin-2-ylmethyl)-6-oxo-3,6-dihydro-2H-pyran-2-yl]-ethyl}-phenyl)-2-methyl-propionitrile] has an IC50 of 20 nM.
With CCc1cc(CCC2(C3CCCC3)CC(O)=C(Cc3nc4ncc(Cl)cn4n3)C(=O)O2)c(OC)cc1O (racemic) [A(210), 3-[(6-chloro[1,2,4]triazolo[1,5-a]pyrimidin-2-yl)methyl]-6-cyclopentyl-6-[2-(5-ethyl-4-hydroxy-2-methoxyphenyl)ethyl]-4-hydroxy-5,6-dihydro-2H-pyran-2-one] the IC50 was 2 nM.
CCc1cc(CCC2(C3CCCC3)CC(O)=C(Cc3nc4ncc(Cl)cn4n3)C(=O)O2)c(OC)cc1O (racemic) [A(211), (−)-3-[(6-chloro[1,2,4]triazolo[1,5-a]pyrimidin-2-yl)methyl]-6-cyclopentyl-6-[2-(5-ethyl-4-hydroxy-2-methoxyphenyl)ethyl]-4-hydroxy-5,6-dihydro-2H-pyran-2-one] gave an IC50 of 4 nM.
CCc1cc(CCC2(C3CCCC3)CC(O)=C(Cc3nc4ncc(C)cn4n3)C(=O)O2)c(OC)cc1O (racemic) [A(212), 3-[(6-methyl[1,2,4]triazolo[1,5-a]pyrimidin-2-yl)methyl]-6-cyclopentyl-6-[2-(5-ethyl-4-hydroxy-2-methoxyphenyl)ethyl]-4-hydroxy-5,6-dihydro-2H-pyran-2-one] was tested, and the IC50 was 4 nM.
Compound CCc1cc(CCC2(C3CCCC3)CC(O)=C(Cc3nc4ncc(C)cn4n3)C(=O)O2)c(OC)cc1O (racemic) [A(213), 3-[(6-methyl[1,2,4]triazolo[1,5-a]pyrimidin-2-yl)methyl]-6-cyclopentyl-6-[2-(5-ethyl-4-hydroxy-2-methoxyphenyl)ethyl]-4-hydroxy-5,6-dihydro-2H-pyran-2-one] has an IC50 of 4.5 nM.
With O=C1OC(CCc2ccc(O)c(CC(F)(F)F)c2)(C2CCCC2)CC(O)=C1Cc1nc2ncc(Cl)cn2n1 (racemic) [A(223), 3-[(6-chloro[1,2,4]triazolo[1,5-a]pyrimidin-2-yl)methyl]-6-cyclopentyl-4-hydroxy-6-{2-[4-hydroxy-3-(2,2,2-trifluoroethyl)phenyl]ethyl}-5,6-dihydro-2H-pyran-2-one] the IC50 was 5 nM.
Compound O=C1OC(CCc2ccc(O)c(CC(F)(F)F)c2)(C2CCCC2)CC(O)=C1Cc1nc2ncc(Cl)cn2n1 (racemic) [A(227), 3-[(6-chloro[1,2,4]triazolo[1,5-a]pyrimidin-2-yl)methyl]-6-cyclopentyl-4-hydroxy-6-{2-[4-hydroxy-3-(2,2,2-trifluoroethyl)phenyl]ethyl}-5,6-dihydro-2H-pyran-2-one] has an IC50 of 10 nM.
In the case of CCC(C#N)(CC)c1c(F)cc(CCC2(C3CCCC3)CC(O)=C(Cc3nc4ncc(C)cn4n3)C(=O)O2)cc1F (racemic) [A(262), 2-(4-{2-[2-Cyclopentyl-4-hydroxy-5-(6-methyl-[1,2,4]triazolo[1,5-a]pyrimidin-2-ylmethyl)-6-oxo-3,6-dihydro-2H-pyran-2-yl]-ethyl}-2,6-difluoro-phenyl)-2-ethyl-butyronitrile], the IC50 is reported as 6 nM.
With CCC(C#N)(CC)c1ccc(CCC2(C3CCCC3)CC(O)=C(Cc3nc4ncc(Cl)cn4n3)C(=O)O2)cc1F (racemic) [A(265), 2-(4-{2-[5-(6-Chloro-[1,2,4]triazolo[1,5-a]pyrimidin-2-ylmethyl)-2-cyclopentyl-4-hydroxy-6-oxo-3,6-dihydro-2H-pyran-2-yl]-ethyl}-2-fluoro-phenyl)-2-ethyl-butyronitrile] the IC50 was 4 nM.
CCc1cc(CCC2(C3CCCC3)CC(O)=C(Cc3nc4ncc(Cl)cn4n3)C(=O)O2)ccc1O (racemic) [A(271), 3-(6-Chloro-[1,2,4]triazolo[1,5-a]pyrimidin-2-ylmethyl)-6-cyclopentyl-6-[2-(3-ethyl-4-hydroxy-phenyl)-ethyl]-4-hydroxy-5,6-dihydro-pyran-2-one] gave an IC50 of 6 nM.
Compound CCc1cc(CCC2(C3CCCC3)CC(O)=C(Cc3nc4ncc(Cl)cn4n3)C(=O)O2)ccc1O (racemic) [A(272), 3-(6-Chloro-[1,2,4]triazolo[1,5-a]pyrimidin-2-ylmethyl)-6-cyclopentyl-6-[2-(3-ethyl-4-hydroxy-phenyl)-ethyl]-4-hydroxy-5,6-dihydro-pyran-2-one] has an IC50 of 6 nM.
CCc1cc(CCC2(C3CCCC3)CC(O)=C(Cc3nc4nc(C)cc(C)n4n3)C(=O)O2)c(OC)cc1O (single isomer, unassigned) [A(154), 6-Cyclopentyl-3-(5,7-dimethyl-[1,2,4]triazolo[1,5-a]pyrimidin-2-ylmethyl)-6-[2-(5-ethyl-4-hydroxy-2-methoxy-phenyl)-ethyl]-4-hydroxy-5,6-dihydro-pyran-2-one] showed an IC50 of 5 nM.
For CC(C)(C#N)c1ccc(CCC2(C3CCCC3)CC(O)=C(Cc3nc4ncc(Cl)cn4n3)C(=O)O2)cc1Cl (single isomer, unassigned) [A(204), 2-(2-Chloro-4-{2-[5-(6-chloro-[1,2,4]triazolo[1,5-a]pyrimidin-2-ylmethyl)-2-cyclopentyl-4-hydroxy-6-oxo-3,6-dihydro-2H-pyran-2-yl]-ethyl}-phenyl)-2-methyl-propionitrile], the IC50 was 17 nM.
In the case of CC(C)(C#N)c1ccc(CCC2(C3CCCC3)CC(O)=C(Cc3nc4ncc(Cl)cn4n3)C(=O)O2)cc1Cl (single isomer, unassigned) [A(205), 2-(2-Chloro-4-{2-[5-(6-chloro-[1,2,4]triazolo[1,5-a]pyrimidin-2-ylmethyl)-2-cyclopentyl-4-hydroxy-6-oxo-3,6-dihydro-2H-pyran-2-yl]-ethyl}-phenyl)-2-methyl-propionitrile], the IC50 is reported as 1 nM.
Work on CCc1cc(CCC2(C3CCCC3)CC(O)=C(Cc3nc4ncccn4n3)C(=O)O2)c(OC)cc1O (single isomer, unassigned) [A(208), 6-cyclopentyl-6-[2-(5-ethyl-4-hydroxy-2-methoxyphenyl)ethyl]-4-hydroxy-3-([1,2,4]triazolo[1,5-a]pyrimidin-2-ylmethyl)-5,6-dihydro-2H-pyran-2-one] yielded an IC50 of 7 nM.
For CCc1cc(CCC2(C3CCCC3)CC(O)=C(Cc3nc4ncccn4n3)C(=O)O2)c(OC)cc1O (single isomer, unassigned) [A(209), 6-cyclopentyl-6-[2-(5-ethyl-4-hydroxy-2-methoxyphenyl)ethyl]-4-hydroxy-3-([1,2,4]triazolo[1,5-a]pyrimidin-2-ylmethyl)-5,6-dihydro-2H-pyran-2-one], the IC50 was 50 nM.
In the case of CC(C)Oc1ccc(CCC2(C3CCCC3)CC(=O)CC(=O)O2)cc1F (single isomer, unassigned) [J(1), 6-cyclopentyl-6-[2-(3-fluoro-4-isopropoxyphenyl)ethyl]dihydro-2H-pyran-2,4(3H)-dione], the IC50 is reported as 4400 nM.
